According to patent publication US6329497A, “Sandramycin analogs” (The Scripps Research Institute, priority 1999, dated 2001):

Tests used:
[1] = target: HIV-1 reverse transcriptase (Human immunodeficiency virus type 1 group M subtype B, UniProt P04585); assay: Inhibition of HIV-1 reverse transcriptase; type: biochemical
Description: The assay was performed according to an available procedure (Goldman, M. E.; Salituro, G. S.; Bowen, J. A.; Williamson, J. M.; Zink, D. L.; Schleif, W. A.; Emini, E. A. Mol. Pharmacol. 1990, 38, 20) with slight modification. A 45 L solution of reaction buffer containing 55 mM Tris·HCl, pH 8.2, 80 mM potassium chloride, 12 mM MgCl2, 1 mM DTT, 50 M EGTA, 2.5 g/mL rA·dT, 0.5 Ci of [^3 H]TTP, 10 M TTP, 1 mg/mL BSA, and 0.01% Triton X-100 was added to a well in a filter cluster plate (Millipore MAHV N45). The reverse transcription reaction was initiated upon addition of the reverse transcriptase (1 unit; 1 unit=10 pmol of [^3 H]TMP incorporated/60 min at 37° C.). The plate was incubated at 37° C. for 90 min. The plate was then placed on ice and 200 µL of 13% trichloroacetic acid and 10 mM sodium pyrophosphate was added to each well. The plate was chilled for 2 h and the liquid vacuumed out through the filter using a Millipore manifold (Millipore MAVM 09601). The precipitate was washed with 1 M and 10 mM sodium pyrophosphate twice. The filter was punched out and placed in a scintillation vial. 4 mL of cocktail was added. Radioactivity was determined by liquid scintillation counting.
The effects of sandramycin and its analogs on HIV-1 reverse transcriptase were determined by incubating the agents and the rA·dT containing buffer at 25° C. for 30 min prior to addition of the reverse transcriptase. Reactions containing no agents were used as controls, and those lacking the transcriptase were used as blanks.

L1210 cell line = assay: In vitro cytotoxic activity, L1210; type: cell-based
[2] = test system: calf thymus DNA and 5'-d(GCATGC)2; assay: DNA binding affinity trends over calf thymus DNA and 5'-d(GCATGC)2 (fluorescence quenching)
Description: Apparent absolute DNA binding constants for 1-22 and related agents including luzopeptin A were obtained by measurement of the fluorescence quenching upon titration addition of calf thymus DNA or the deoxyoligonucleotides 5'-d(GCXXGC)2 where XX=AT, TA, GC, and CG. For each agent, the characteristic fluorescence excitation and emission spectra were recorded in 10 mM Tris-HCl, 75 mM NaCl (pH 7.4) buffer, FIG. 6. For the DNA binding assays which quantitate the fluorescence quenching, excitation outside the absorbance range of DNA was employed and the most intense fluorescence emission at a longer wavelength monitored. For assay of the DNA-induced fluorescence quenching of the agents, a 2 mL buffer solution of Tris-HCl (pH 7.4) and 75 mM NaCl was employed. For titration, small aliquots of DNA were added to solutions of the agents in Tris-HCl buffer (pH 7.4).
Despite these precautions, the fluorescence for a number of the analog solutions decreased for several of analogs (11, 14, 17, 21 and 22) and the quality of the binding constants for these should be viewed with caution. […] The titrations were carried out with 15 min time intervals between DNA additions to allow binding equilibration. […] The titration fluorescence quenching was analyzed by Scatchard analysis (Scatchard, G. Ann. N. Y. Acad. Sci. 1949, 51, 660) with the following equation: rb /c=Kb n-Kb rb where rb is the number of agent molecules bound per DNA base-pair, c is the free drug concentration, Kb is the apparent association constant, and n is the number of agent binding sites per base-pair.
A pronounced downward curvature in an infinite lattice such as calf thymus DNA is recognized to arise in part from neighbor exclusion where the binding of an agent excludes the subsequent binding at nearby sites. This exclusion manifests itself in the plot by a reduction in the apparent binding constant as the DNA lattice approaches saturation and the probability of finding a free site is diminished. In the calf thymus DNA studies, the binding also entails multiple classes of independent binding sites or modes. For simplicity, a linear fit of the high affinity binding sites was used to determine the binding constant attributable to bis-intercalation. For the deoxyoligonucleotides, the curvature can be more simply attributed to multiple classes of independent binding sites or binding modes. There are a number of mathematical methods to deconvolute the curved plot into such individual binding events. In the deoxyoligonucleotide studies, a non-linear fit described by Feldman was also used to deconvolute the curves. The model assumes one ligand with two binding types or sites. Since the number of binding sites is limited, we have interpreted this to indicate a high affinity bis-intercalation and a lower affinity binding potentially involving mono-intercalation. The formula was fit using the JMP^22 statistical fitting program using an initial approximation of the two n values and fitting for K1 and K2.
After 5 min of stirring, an initial fluorescence reading was taken with minimum exposure to the excitation beam. […] The excitation and emission wavelengths used for each analog varied and can be found in FIG. 6. The results of the titration were analyzed by Scatchard analysis. The linear portion of the Scatchard plot was used to determine the high affinity binding constants. In the case of the deoxyoligonucleotide study, a non-linear fit of the curve as described in the text was also used to determine the high affinity binding constant (Feldman, H. A. Anal. Biochem. 1972, 48, 317).

five cell lines = assay: In vitro cytotoxic activity of key substructure analogs, five cell lines; type: cell-based; details: five cell lines

COc1cc2ccccc2nc1C(=O)N[C@@H]1COC(=O)[C@H](C(C)C)N(C)C(=O)CN(C)C(=O)CNC(=O)[C@@H]2CCCCN2C(=O)[C@H](NC(=O)c2nc3ccccc3cc2OC)COC(=O)[C@H](C(C)C)N(C)C(=O)CN(C)C(=O)CNC(=O)[C@@H]2CCCCN2C1=O [compound 3, (N-(3-Methoxy-quinolinyl-2-carbonyl)-D-ser-Pip-Gly-Sar-NMe-Val)2 (Serine Hydroxyl) Dilactone]
HIV-1 reverse transcriptase inhibition, in words [1]: roughly maintain the HIV-1 reverse transcriptase inhibitory potency of 1
reduction in inhibitory potency on O-alkylation of the C3 phenol [1]: approx. 10

CC(C)C1C(=O)OCC(NC(=O)c2cc3ccccc3cc2OCc2ccccc2)C(=O)N2CCCCC2C(=O)NCC(=O)N(C)CC(=O)N(C)C(C(C)C)C(=O)OCC(NC(=O)c2cc3ccccc3cc2OCc2ccccc2)C(=O)N2CCCCC2C(=O)NCC(=O)N(C)CC(=O)N1C [compound 6, (N-(3-Benzyl-oxynaphthyl-2-carbonyl)-D-Ser-Pip-Gly-Sar-NMe-Val)2 (Serine Hydroxyl) Dilactone]
cytotoxic potency, fold less potent than 2 (L1210 cell line): > 5000
cytotoxic potency, fold less potent than 5 (L1210 cell line): > 500

CC(C)[C@H]1C(=O)OC[C@@H](NC(=O)c2ccccn2)C(=O)N2CCCC[C@H]2C(=O)NCC(=O)N(C)CC(=O)N(C)[C@@H](C(C)C)C(=O)OC[C@@H](NC(=O)c2ccccn2)C(=O)N2CCCC[C@H]2C(=O)NCC(=O)N(C)CC(=O)N1C [compound 10, (N-(Pyridyl-2-carbonyl)-D-Ser-Pip-Gly-Sar-NMe-Val)2 (Serine Hydroxyl) Dilactone]
cytotoxic potency, fold less potent than 4 (L1210 cell line): 4×10^5
cytotoxic potency, fold less potent than 8 (L1210 cell line): 1000
HIV-1 reverse transcriptase inhibition, in words [1]: much less effective

COc1ccc2nc(C(=O)NC3COC(=O)C(C(C)C)N(C)C(=O)CN(C)C(=O)CNC(=O)C4CCCCN4C(=O)C(NC(=O)c4nc5ccc(OC)cc5cc4O)COC(=O)C(C(C)C)N(C)C(=O)CN(C)C(=O)CNC(=O)C4CCCCN4C3=O)c(O)cc2c1 [compound 11, (N-(3-Hydroxy-6-Methoxy-quinolinyl-3-carbonyl)-D-Ser-Pip-Gly-Sar-NMe-Val)2 (Serine Hydroxyl) Dilactone]
DNA binding affinity, in words [2]: slightly less effective
cytotoxic potency, fold less potent than 1 (L1210 cell line): 2

COc1ccc2nc(C(=O)NC3COC(=O)C(C(C)C)N(C)C(=O)CN(C)C(=O)CNC(=O)C4CCCCN4C(=O)C(NC(=O)c4nc5ccc(OC)cc5cc4OCc4ccccc4)COC(=O)C(C(C)C)N(C)C(=O)CN(C)C(=O)CNC(=O)C4CCCCN4C3=O)c(OCc3ccccc3)cc2c1 [compound 12, (N-(3-Benzyloxy-6-methoxy-quinolinyl-2-carbonyl)-D-Ser-Pip-Gly-Sar-NMe-Val)2 (Serine Hydroxyl) Dilactone]
cytotoxic potency, fold less potent than 2 (L1210 cell line): 0.8
cytotoxic potency, fold less potent than 11 (L1210 cell line): 400

COc1ccc2nc(C(=O)N[C@@H]3COC(=O)[C@H](C(C)C)N(C)C(=O)CN(C)C(=O)CNC(=O)[C@@H]4CCCCN4C(=O)[C@H](NC(=O)c4ccc5cc(OC)ccc5n4)COC(=O)[C@H](C(C)C)N(C)C(=O)CN(C)C(=O)CNC(=O)[C@@H]4CCCCN4C3=O)ccc2c1 [compound 13, (N-(6-Methoxyquinolinyl-2-carbonyl)-D-Ser-Pip-Gly-Sar-NMe-Val)2 (Serine Hydroxyl) Dilactone]
cytotoxic potency, fold less potent than 4 (L1210 cell line): 2
cytotoxic potency, fold less potent than 11 (L1210 cell line): 10
HIV-1 reverse transcriptase inhibition, in words [1]: Comparable but slightly less potent inhibition

Cc1ccc2nc(C(=O)N[C@@H]3COC(=O)[C@H](C(C)C)N(C)C(=O)CN(C)C(=O)CNC(=O)[C@@H]4CCCCN4C(=O)[C@H](NC(=O)c4nc5ccc(C)cc5cc4O)COC(=O)[C@H](C(C)C)N(C)C(=O)CN(C)C(=O)CNC(=O)[C@@H]4CCCCN4C3=O)c(O)cc2c1 [compound 14, (N-(-3-Hydroxy-6-methylquinolinyl-2-carbonyl)-D-Ser-Pip-Gly-Sar-NMe-Val). sub.2 (Serine Hydroxyl) Dilactone]
DNA binding affinity, in words [2]: consistently slightly less effective
cytotoxic potency, fold less potent than 1 (L1210 cell line): 1
HIV-1 reverse transcriptase inhibition, in words [1]: Comparable but slightly less potent inhibition

CC(C)[C@H]1C(=O)OC[C@@H](NC(=O)c2nc3cc(Cl)ccc3cc2O)C(=O)N2CCCC[C@H]2C(=O)NCC(=O)N(C)CC(=O)N(C)[C@@H](C(C)C)C(=O)OC[C@@H](NC(=O)c2nc3cc(Cl)ccc3cc2O)C(=O)N2CCCC[C@H]2C(=O)NCC(=O)N(C)CC(=O)N1C [compound 16, (N-(7-Chloro-3-hydroxyquinolinyl-2-carbonyl)-D-Ser-Pip-Gly-Sar-NMe-Val). sub.2 (Serine Hydroxyl) Dilactone]
DNA binding affinity, in words [2]: nearly indistinguishable from 1
cytotoxic potency, fold less potent than 1 (L1210 cell line): 0.5
HIV-1 reverse transcriptase inhibition, in words [1]: Comparable but slightly less potent inhibition

CC(C)C1C(=O)OCC(NC(=O)c2nc3ccccc3nc2OCc2ccccc2)C(=O)N2CCCCC2C(=O)NCC(=O)N(C)CC(=O)N(C)C(C(C)C)C(=O)OCC(NC(=O)c2nc3ccccc3nc2OCc2ccccc2)C(=O)N2CCCCC2C(=O)NCC(=O)N(C)CC(=O)N1C [compound 20, (N-(3-Benzyl-oxyquinoxalyl-2-carbonyl)-D-Ser-Pip-Gly-Sar-NMe-Val)2 (Serine Hydroxyl) Dilactone]
cytotoxic potency, fold less potent than 19 (L1210 cell line): 7

CC(C)[C@H]1C(=O)OC[C@@H](NS(=O)(=O)CC[Si](C)(C)C)C(=O)N2CCCC[C@H]2C(=O)NCC(=O)N(C)CC(=O)N(C)[C@@H](C(C)C)C(=O)OC[C@@H](NC(=O)c2nc3ccccc3cc2O)C(=O)N2CCCC[C@H]2C(=O)NCC(=O)N(C)CC(=O)N1C [compound 24, N^1 -SES,N^6 -(3-hydroxylquinoline-2-carbonyl) (D-Ser-Pip-Gly-Sar-NMe-Val)2 (Serine Hydroxyl) Dilactone]
fold less potent than 1 (five cell lines): 5000-10000

(N-(3-Benzyl-oxypyridyl-2-carbonyl)-D-Ser-Pip-Gly-Sar-NMe-Val)2 (Serine Hydroxyl) Dilactons [compound 9]
cytotoxic potency, fold less potent than 2 (L1210 cell line): 4000
cytotoxic potency, fold less potent than 8 (L1210 cell line): 1000

(N-(3-Benzyloxy-7-chloroquinolinyl-2-carbonyl)-D-Ser-Pip-Gly-Sar-NMe-Val)2 (Serine Hydroxyl) Dilactone [compound 17]
reduction of the binding affinity versus 16 ([2]; O-benzylation of chromophore phenol): 2.4 to 2.7 kcal/mol
reduction in inhibitory potency on O-alkylation of the C3 phenol [1]: > 500

Sandramycin Bis-O-benzyl Ether [compound 2]
fold less potent than 1 (five cell lines): 20-1000
cytotoxic potency, fold less potent than 1 (L1210 cell line): 1000
